From patent US20250114337A1, “METHODS FOR VASCULAR REGENERATION AND WOUND TREATMENT” (THE METHODIST HOSPITAL, priority 2022, published 2025)
“Also recorded” adds a separate entry of the source.

Experiments:
BJ fibroblasts = experiment: in vitro transdifferentiation of fibroblasts to induced endothelial cells (iECs); format: cell-based, human; details: fibroblasts exposed during transdifferentiation protocol
Source text: Innate immune activation is required for transdifferentiation. […] 131 (3): p. 300-9). iECs generated from this protocol manifest high fidelity for endothelial lineage. They incorporate acetylated LDL (FIG. 2B), form tubular networks (FIG. 2C), have similar transcriptomes as genuine endothelial cells, and increase capillary density and perfusion when injected into the ischemic hindlimb of the mouse (FIG. 2D) (Sayed, N., et al., Circulation, 2015. 131 (3): p. 300-9). This protocol can be utilized to study the role of O-GlcNAcylation in transdifferentiation in vitro.
O-GlcNAcylation is required for in vitro transdifferentiation. To define if the elevation of O-GlcNAcylation is required for transdifferentiation, fibroblasts were exposed to Thiamet G (TMG) (an OGA inhibitor that enhances O-GlcNAcylation) or DON (an inhibitor for GFAT that acts upstream in the hexosamine biosynthesis pathway and reduces O-GlcNAcylation). The number of iECs generated during transdifferentiation is increased when fibroblasts are exposed to TMG and decreased when exposed to DON (FIG. 5A). […] The role of O-GlcNAcylation of specific epigenetic regulars e.g., HIRA during transdifferentiation can also be addressed.
To define if the elevation of O-GlcNAcylation is required for transdifferentiation, inhibitors of O-GlcNAcylation including OSMI (an inhibitor for OGT) and DON (an inhibitor for GFAT that acts upstream in the hexosamine biosynthesis pathway and reduces O-GlcNAcylation) or an activator of O-GlcNAcylation. Thiamet G (TMG) (an OGA inhibitor that enhances O-GlcNAcylation), were delivered to BJ fibroblasts undergoing transdifferentiation. The number of CD31 expressing iECs generated during transdifferentiation decreases when exposed to OSMI or DON and increases when fibroblasts are exposed to TMG (FIG. 17B). Then OGT or OGA were knocked down using shRNA in the BJ fibroblasts (FIG. 17C) and performed transdifferentiation protocol in vitro.

ischemic hindlimb model = ischemic hindlimb model in fibroblast lineage tracing Fsp1-Cre: R26R-EYFP mice; format: in vivo, mouse; details: ischemic hindlimb
Protocol: Using established transdifferentiation protocol and metabolomics profiling to assess the global metabolic changes during transdifferentiation. […] To determine the role of this metabolite in transdifferentiation, the effect of Thiamet G was assessed, an inhibitor of OGA, which enhances O-GlcNAcylation. Thiamet G increased transdifferentiation efficiency in vitro. In a fibroblast lineage tracing mice, Fsp1-Cre: R26R-EYFP mice, Thiamet G increased tissue O-glycnacylation, increased capillary density and limb perfusion, and increased the number of fibroblasts transdifferentiating into endothelial cells (i.e. FSP+CD31+ cell) in an ischemic hindlimb model.
Angiogenic transdifferentiation in limb ischemia. A fibroblast lineage tracing mouse model (Fsp1-Cre: R26R-EYFP) was used to detect transdifferentiation in vivo in a murine model of limb ischemia (Meng, S., et al., Circulation, 2020. 142 (17): p. 1647-1662). […] This population is abolished when the mice are treated with anti-inflammatory drugs, such as dexamethasone. Intriguingly, the disappearance of these cells is associated with a reduction in perfusion recovery and worsening clinical scores. Similar results are achieved when inflammatory signaling is impaired, as in Fsp1-Cre: Rela flox/flox mice. In these animals, NFκB signaling is blocked in the Fsp1+fibroblasts, associated with a dramatic reduction in transdifferentiated fibroblasts (i.e. YFP+CD144+ cells), and impaired perfusion (Meng. S., et al., Circulation, 2020. 142 (17): p. 1647-1662). […] Cluster 8 produced angiogenic cytokines, whereas Cluster 5 expressed genes associated with EC identity (i.e CD144). But only Cluster 5 could generate EC-like networks in Matrigel whereas other fibroblasts, including Cluster 8 fibroblasts, formed nodal structures typical of fibroblasts in Matrigel. The data support the idea that transdifferentiation may occur in vivo with tissue ischemia, and is dependent on inflammatory signaling. This model can be used to study the contribution of O-GlcNAcylation in transdifferentiation and limb ischemia recovery in vivo. A similar lineage tracing approach can be used with tamoxifen-inducible Col1A2-Cre/ERT: R26R-tdTomato mouse strain to study the contribution of O-GlcNAcylation in transdifferentiation and limb ischemia recovery in vivo.
To determine if O-GlcNAcylation enhances revascularization through transdifferentiation, fibroblasts lineage tracing Fsp1-Cre: R26R-EYFP mice strain were utilized where it was previously observed the in situ transdifferentiation phenomenon (FIG. 20A). In this model, all the fibroblasts expressing Fsp1 (fibroblast-specific protein1) are marked with YFP. With this model, a significant increase in the FSP-expressing cell progeny in the ischemic limb was identified compared with the sham-operated limb 3 days after the femoral artery ligation was perform (FIG. 20A) and compare the YFP+ cells over the different time points (FIG. 20A). The percentage of the YFP+CD31+CD11b-cell population which is considered the transdifferentiation population was analyzed further. […] To determine the role of the O-GlcNAcylation on the transdifferentiation, the Fsp1-Cre: R26R-EYFP mice that are undergoing vascular recovery with OSMI were treated, and the transdifferentiation population in the limb muscle tissue 7 days post-surgery was analyzed.

[1] = system: ischemic hindlimb mice model; experiment: hindlimb ischemia recovery in WT C57BL/6 mice, laser doppler imaging; format: in vivo, mouse; details: TMG 10 mg/kg 0, 1, 2 days post-surgery; older mice (around 20 weeks)
Protocol: O-GlcNAcylation manipulations regulated recovery from tissue ischemia. To determine if the change in O-GlcNAcylation can modulate limb ischemia recovery, and contributes to vascular recovery, WT C57BL/6 mice were treated with the O-GlcNAcylation inhibitor, OSMI4, or O-GlcNAcylation enhancer, TMG 0, 1, 2 days post-surgery. Age is an important factor that determines recovery, and younger mice are known to have a more robust angiogenic response as compared with older mice. Accordingly, younger mice (between 8 to 12 weeks) were used to assess the impairment of angiogenesis by OSMI (which reduces O-GlcNAcylation). Older mice (around 20 weeks) were used to assess the enhancement of angiogenesis by TMG (which increases O-GlcNAcylation). […] It will be determined whether this beneficial effect is mediated by increased DNA accessibility and enhanced transdifferentiation.
To determine if O-GlcNAcylation manipulations can modulate the overall effect of vascular recovery from limb ischemia. WT C57BL/6 mice were treated with the O-GlcNAcylation inhibitor. OSMI4 (10 mg/kg), or O-GlcNAcylation enhancer. TMG (10 mg/kg) 0, 1, 2 days post-surgery (FIG. 19A).

SMILES | iEC yield (number of CD31 expressing iECs generated during transdifferentiation) (BJ fibroblasts) | capillary density (ischemic hindlimb model) | limb perfusion (ischemic hindlimb model) | number of fibroblasts transdifferentiating into endothelial cells (FSP+CD31+ cell) (ischemic hindlimb model) | tissue O-glycnacylation (ischemic hindlimb model) | iEC yield (number of CD31 expressing iECs generated during transdifferentiation) (BJ fibroblasts; listed as Thiamet G) | recovery of blood flow post femoral artery ligation (revascularization) [1]
[N-]=[N+]=CC(=O)CC[C@H](N)C(=O)O [DON] | decreases; also recorded: impair | – | – | – | – | – | –
CCNC1=NC2C(OC(CO)C(O)C2O)S1 (centres unmarked) [TMG, 2-(ethylamino)-5-(hydroxymethyl)-5,6,7,7a-tetrahydro-3aH-pyrano[3,2-d][1,3]thiazole-6,7-diol] | increases | increased | increased | increased | increased | increased | enhanced recovery; also recorded: enhances
